Assay results taken from patent publication US11964943B2, “3,5-diarylidenyl-n-substituted-piperid-4-one-derived inhibitors of Stat3 pathway activity and uses thereof” (priority 2017, dated 2024).
In brackets after ≈: the same amount, converted by molar mass. Several values for one entry are separate records, joined by “and”; a condition that tells them apart may be missing. Equal values may be shown once. Read-outs that look alike come from different tables or passages of the source.

What was measured:
L1210 (lymphoma) cells = assay: MTT cytotoxicity assay, L1210 cells
B16 (melanoma) cells = assay: MTT cytotoxicity assay, B16 cells
[1] = system: A2780-cisplatin resistant spheroids; assay: CellTiter-Glo 3D cell viability assay, A2780-cisplatin resistant spheroids; format: cell-based; conditions: 96 h exposure, 3D CellTiter-Glo
Experimental: For cell spheroid formation, HCT116-oxaliplatin resistant cells, A2780-cisplatin resistant cells, and HT1080 cells were seeded in Corning® Spheroid opaque-walled 96 well Microplates (ultra-low attachment; Nuclon™ Sphera™, Thermofisher) at densities of 2000 cells/well in 100 μl of cell solution and allowed to grow for 4 days, before any manipulation.
At the end of drug incubation, both the plates and the CellTitre-Glo® reagent (previously thawn overnight in the fridge) were equilibrated at room temperature for at least 30 min. Subsequently, 100 μl of cell solution were carefully removed from each well, without disrupting the spheroid and equal volume of CellTitre-Glo® reagent was added. Cell lysis was performed by vigorously shaking the plate for 5 min. To stabilize the luminescent signal, the plate was incubated in the dark at RT for another 30 min before luminescence was recorded on a plate reader. The cell viability of treated samples was normalised to the untreated controls.
The cytotoxicity studies in spheroids were conducted using the CellTiter-Glo® 3D Cell viability assay (Promega) following the instructions of the manufacturer.

[2] = system: MDA-MB-435 cancer cell line; assay: SRB antiproliferative assay, MDA-MB-435; format: cell-based, human; conditions: Homo sapiens, MDA-MB-435, 48 h exposure
[3] = Aqueous solubility (MultiScreen Solubility Filter Plate, shake-flask based); conditions: aqueous buffer with 5% DMSO, pH 7.4, aqueous with cosolvent or surfactant or cyclodextrin, kinetic from dmso stock
Experimental: Aqueous solubility of Compounds of the Invention was measured with a modified version of the MultiScreen Solubility Filter Plate protocol (Millipore). This assay was based on the shake-flask equilibrium method and utilizes UV-Vis spectroscopy to quantify the unknown samples. The assay was conducted at room temperature at pH 7.4. […] Compound of the Invention was dissolved in DMSO, and the final DMSO concentration was 5% (v/v). Each sample was analyzed by UV-Vis spectroscopy at 10 nm increments from 260-600 nm to determine the optimal wavelength for detection and construct standard curves. […] A 4:1 mixture of supernatant to acetonitrile was added to a 96-well acrylic plate and analyzed by UV-Vis spectroscopy.
Aqueous solubility was measured with a modified version of the MultiScreen Solubility Filter Plate protocol (Millipore). This assay is based on the shake-flask equilibrium method and utilizes UV-Vis spectroscopy to quantify the unknown samples. The assay is conducted at room temperature at pH 7.4. […] Each compound was dissolved in DMSO, and the final DMSO concentration was 5% (v/v). Each sample was analyzed by UV-Vis spectroscopy at 10 nm increments from 260-600 nm to determine the optimal wavelength for detection and construct standard curves. […] A 4:1 mixture of supernatant to acetonitrile was added to a 96-well acrylic plate and analyzed by UV-Vis spectroscopy.

[4] = Mus musculus, L1210, 72 h, read-out: IC50 (μM) L1210, 72 h exposure, MTT, mean of three independent experiments
[5] = read-out: IC50 (μM) B16, 72 h exposure, MTT, mean of three independent experiments
[6] = Mus musculus, B16, 72 h, read-out: IC50 (μM) B16, 72 h exposure, MTT, mean of three independent experiments
[7] = read-out: IC50 (μM) L1210, 72 h exposure, MTT, mean of three independent experiments

Compound	IC50 (L1210 (lymphoma) cells; [4]) [µM]	IC50 (B16 (melanoma) cells; [6]) [µM]	also measured
CN1C/C(=C\c2ccc([N+](=O)[O-])cc2)C(=O)/C(=C/c2ccc([N+](=O)[O-])cc2)C1 [IB-3]	1.3		IC50 (B16 (melanoma) cells; [5]): 41 ± 2 µM; IC50 (B16 (melanoma) cells; read-out: IC50 (μM) B16, 72 h exposure, MTT, mean of three independent experiments, listed as 5c): 4 µM
Cc1ccc(/C=C2\CN(C(C)C)C/C(=C\c3ccc(C)cc3)C2=O)cc1 [IC-2]	2.5 ± 0.7	4 ± 2	
COc1cc(/C=C/C(=O)CC(=O)/C=C/c2ccc(O)c(OC)c2)ccc1O [Curcumin]			IC50 [1]: 37000 ± 9400 nM
Cc1ccc(/C=C2\CN(c3ccccc3)C/C(=C\c3ccc(C)cc3)C2=O)cc1 [IE-2, 3,5-Di(4-methylbenzylidene)-1-phenylpiperidin-4-one]	> 100	> 100	melting point: 173 to 176 °C
COc1cc(/C=C2\CN(Cc3ccccc3)C/C(=C\c3ccc(O)c(OC)c3)C2=O)ccc1O [ID-6]	2.8 ± 0.4	2 ± 0.5	
O=C1/C(=C/c2ccccc2)CNC/C1=C\c1ccccc1 [IA-1]	0.5	5 ± 1	IC50 (μM) B16 (B16 (melanoma) cells; 72 h exposure, MTT, mean of three independent experiments): _Ta
COc1cc(/C=C2\CN(C)C/C(=C\c3ccc(O)c(OC)c3)C2=O)ccc1O [IB-6]		1.3 to 2.1	IC50 (L1210 (lymphoma) cells; [7]): 1.9 ± 0.4 µM; IC50 (B16 (melanoma) cells; [5]): 1.8 ± 0.3 µM
O=C1/C(=C/c2ccc([N+](=O)[O-])cc2)CN(c2ccccc2)C/C1=C\c1ccc([N+](=O)[O-])cc1 [IE-3, 3,5-Di(4-nitrobenzylidene)-1-phenylpiperidin-4-one]			melting point: 184 to 188 °C; IC50 (L1210 (lymphoma) cells; [7]): 65 ± 7 µM; IC50 (B16 (melanoma) cells; [5]): 65 ± 7 µM
COc1ccc(/C=C2\CNC/C(=C\c3ccc(OC)c(OC)c3)C2=O)cc1OC [IA-7]	0.6 ± 0.2	2.3 ± 0.5	
COc1ccc(/C=C2\CN(Cc3ccccc3)C/C(=C\c3ccc(OC)c(OC)c3)C2=O)cc1OC [ID-7]	3.3 ± 0.1	2 ± 0.4	IC50 (B16 (melanoma) cells; read-out: IC50 (μM) B16, 72 h exposure, MTT, mean of three independent experiments, listed as 7g): 2.5 ± 0.4 µM
CN1C/C(=C\c2ccccc2)C(=O)/C(=C/c2ccccc2)C1 [IB-1]	2.4 ± 0.3	5 ± 2	
O=C1/C(=C/c2ccccc2)CN(c2ccccc2)C/C1=C\c1ccccc1 [IE-1]	4 ± 2	7	
COc1ccc(/C=C2\CN(C(C)C)C/C(=C\c3ccc(OC)c(O)c3)C2=O)cc1O [IC-5, 3,5-Di(3-hydroxy-4-methoxylbenzyliden)-1-isopropylpiperidin-4-one]	0.4	1.1	melting point: 165 to 168 °C
COc1ccc(/C=C2\CN(C)C/C(=C\c3ccc(OC)cc3)C2=O)cc1 [IB-4]	62	23	
Cc1ccc(/C=C2\CNC/C(=C\c3ccc(C)cc3)C2=O)cc1 [IA-2]			IC50 (L1210 (lymphoma) cells; [7]): 3.1 ± 0.1 µM; IC50 (B16 (melanoma) cells; [5]): 8 ± 4 µM
COc1cc(/C=C2\CN(Cc3ccccc3)C/C(=C\c3cc(OC)c(OC)c(OC)c3)C2=O)cc(OC)c1OC [ID-8]	3.6	2.4	IC50 [2]: 0.76 µM; solubility at 6 h [3]: 210 ± 20 µM (≈ 115 µg/mL)
O=C1/C(=C/c2ccc([N+](=O)[O-])cc2)CNC/C1=C\c1ccc([N+](=O)[O-])cc1 [IA-3]	0.3	15	
COc1ccc(/C=C2\CN(Cc3ccccc3)C/C(=C\c3ccc(OC)cc3)C2=O)cc1 [ID-4]	8	27	
COc1cc(/C=C2\CNC/C(=C\c3cc(OC)c(OC)c(OC)c3)C2=O)cc(OC)c1OC [IA-8]	0.32	0.3	IC50 [2]: 0.088 µM; solubility at 6 h [3]: 70 ± 10 µM (≈ 31.9 µg/mL); IC50 (L1210 (lymphoma) cells; read-out: IC50 (μM) L1210, 72 h exposure, MTT, mean of three independent experiments, listed as 4h): ~0.3 µM

Compound	IC50 (L1210 (lymphoma) cells; [4]) [µM]	IC50 (B16 (melanoma) cells; [6]) [µM]	also measured
O=C1/C(=C/c2ccc([N+](=O)[O-])cc2)CN(Cc2ccccc2)C/C1=C\c1ccc([N+](=O)[O-])cc1 [ID-3]	2 ± 1	2.5 ± 0.7	
Cc1ccc(/C=C2\CNC/C(=C\c3ccc(C)cc3)C2=O)cc1 [IB-2]			IC50 (L1210 (lymphoma) cells; [7]): 35 ± 5 µM; IC50 (B16 (melanoma) cells; [5]): 41 ± 6 µM
COc1cc(/C=C2\CN(c3ccccc3)C/C(=C\c3ccc(O)c(OC)c3)C2=O)ccc1O [IE-6, 3,5-Di(4-hydroxy-3-methoxybenzylidene)-1-phenylpiperidin-4-one]	2.8 ± 0.4	2.9 ± 0.4	melting point: 139 to 143 °C
COc1ccc(/C=C2\CN(c3ccccc3)C/C(=C\c3ccc(OC)c(OC)c3)C2=O)cc1OC [IE-7, 3,5-Di(3,4-dimethoxybenzylidene)-1-phenylpiperidin-4-one]	2.9 ± 0.9	1.3 ± 0.1	melting point: 144 to 148 °C
Cc1ccc(/C=C2\CN(Cc3ccccc3)C/C(=C\c3ccc(C)cc3)C2=O)cc1 [ID-2]	9	14	
COc1ccc(/C=C2\CN(C)C/C(=C\c3ccc(OC)c(O)c3)C2=O)cc1O [IB-5]	0.8 to 1.9	1.3 to 2.1	IC50 (L1210 (lymphoma) cells; [7]): 0.8 ± 0.4 µM; IC50 (B16 (melanoma) cells; [5]): 2.1 ± 0.1 µM
O=C1/C(=C/c2ccccc2)CN(Cc2ccccc2)C/C1=C\c1ccccc1 [ID-1]	3.4 ± 0.5	3.1 ± 0.1	
COc1ccc(/C=C2\CN(C)C/C(=C\c3ccc(OC)c(OC)c3)C2=O)cc1OC [IB-7]	0.8 to 1.9	1.3 to 2.1	IC50 (L1210 (lymphoma) cells; [7]): 1 ± 0.6 µM; IC50 (B16 (melanoma) cells; [5]): 1.3 ± 0.1 µM
COc1ccc(/C=C2\CN(c3ccccc3)C/C(=C\c3ccc(OC)c(O)c3)C2=O)cc1O [IE-5, 3,5-Di(3-hydroxy-4-methoxybenzylidene)-1-phenylpiperidin-4-one]	6	19	melting point: 142 to 146 °C
COc1cc(/C=C2\CN(C(C)C)C/C(=C\c3ccc(O)c(OC)c3)C2=O)ccc1O [IC-6]	2.2 ± 0.2	2.2 ± 0.2	
COc1ccc(/C=C2\CN(Cc3ccccc3)C/C(=C\c3ccc(OC)c(O)c3)C2=O)cc1O [ID-5]	3.1 ± 0.1	2.4 ± 0.5	
COc1cc(/C=C2\CN(C)C/C(=C\c3cc(OC)c(OC)c(OC)c3)C2=O)cc(OC)c1OC [IB-8]	0.37	0.31	IC50 [2]: 0.19 µM; solubility at 6 h [3]: 160 ± 30 µM (≈ 75.1 µg/mL); IC50 (L1210 (lymphoma) cells; read-out: IC50 (μM) L1210, 72 h exposure, MTT, mean of three independent experiments, listed as 5 h): ~0.3 µM; IC50 (B16 (melanoma) cells; read-out: IC50 (μM) B16, 72 h exposure, MTT, mean of three independent experiments, listed as 5 h): ~0.3 µM
COc1cc(/C=C2\CN(C(C)C)C/C(=C\c3cc(OC)c(OC)c(OC)c3)C2=O)cc(OC)c1OC [IC-8]	25 to 65	25 to 65	IC50 (L1210 (lymphoma) cells; read-out: IC50 (μM) L1210, 72 h exposure, MTT, mean of three independent experiments, listed as 6h): 47 µM and 47.1 µM; IC50 (B16 (melanoma) cells; read-out: IC50 (μM) B16, 72 h exposure, MTT, mean of three independent experiments, listed as 6h): 25.6 µM
COc1ccc(/C=C2\CNC/C(=C\c3ccc(OC)cc3)C2=O)cc1 [IA-4]		25 to 65	IC50 (L1210 (lymphoma) cells; [7]): 35 ± 8 µM; IC50 (B16 (melanoma) cells; read-out: IC50 (μM) B16, 72 h exposure, MTT, mean of three independent experiments, listed as 4d): 43 µM
COc1ccc(/C=C2\CNC/C(=C\c3ccc(OC)c(O)c3)C2=O)cc1O [IA-5]	0.9 ± 0.3	3 ± 1	
COc1cc(/C=C2\CNC/C(=C\c3ccc(O)c(OC)c3)C2=O)ccc1O [IA-6]	0.9 ± 0.4	1.3 ± 0.6	
CC(C)N1C/C(=C\c2ccc([N+](=O)[O-])cc2)C(=O)/C(=C/c2ccc([N+](=O)[O-])cc2)C1 [IC-3]	0.9 ± 0.6	3.7 ± 0.6	
COc1ccc(/C=C2\CN(c3ccccc3)C/C(=C\c3ccc(OC)cc3)C2=O)cc1 [IE-4, 3,5-Di(4-methoxybenzylidene)-1-phenylpiperidin-4-one]		25 to 65	melting point: 152 to 155 °C; IC50 (L1210 (lymphoma) cells; [7]): 55 ± 7 µM; IC50 (B16 (melanoma) cells; [5]): 37 ± 6 µM
